Data reported in patent publication US20080167330A1, “Carbamoylsulphoximides as protein kinase inhibitors” (priority 2006, published 2008).
pIC50: −log10 of the molar value.

How the values were obtained:
[1] = tested on: human MCF7 breast tumour cells; assay: MCF7 proliferation assay; type: cell-based; details: MCF7, 96 h, 4 days incubation, crystal violet staining
Experimental: Cultivated human MCF7 breast tumour cells (ATCC HTB-22) were plated out in a density of 5000 cells/measurement point in 200 μl of growth medium (RPMI1640, 10% foetal calf serum, 2 mU/mL insulin, 0.1 nM oestradiol) in a 96-well multititre plate. After 24 hours, the cells from a plate (zero plate) were stained with crystal violet (see below), while the medium in the other plates was replaced by fresh culture medium (200 μl) to which the test substances had been added in various concentrations (0 μM, and in the range 0.01-30 μM; the final concentration of the solvent dimethyl sulphoxide was 0.5%). The cells were incubated in the presence of the test substances for 4 days. The cell proliferation was determined by staining the cells with crystal violet: the cells were fixed by adding 20 μl/measurement point of an 11% strength glutaraldehyde solution at room temperature for 15 min. After the fixed cells had been washed three times with water, the plates were dried at room temperature. The cells were stained by adding 100 μl/measurement point of a 0.1% strength crystal violet solution (pH adjusted to pH 3 by adding acetic acid). After the stained cells had been washed three times with water, the plates were dried at room temperature. The dye was dissolved by adding 100 μl/measurement point of a 10% strength acetic acid solution, and the extinction was determined by photometry at a wavelength of 595 nm. The percentage change in cell growth was calculated by normalizing the measurements to the extinctions of the zero point plate (=0%) and the extinction of the untreated (0 μM) cells (=100%). The IC50 values were determined by means of a 4-parameter fit using the company's own software.

KDR (VEGFR2) = target: T1, KDR (VEGFR2) (Homo sapiens, UniProt P35968); assay: KDR kinase assay; type: biochemical; details: 8 μM ATP
T1 construct: GST; purchased ProQinase GmbH, Freiburg; host or cells: baculovirus-infected insect cells (Sf9)
Experimental: Recombinant KDR kinase-GST fusion proteins purified from baculovirus-infected insect cells (Sf9), were purchased from ProQinase GmbH, Freiburg. Poly(Glu4Tyr)n, which was used as kinase substrate, was purchased from Sigma.
KDR kinase was incubated in the presence of various concentrations of test substances (0 μM, and within the range 0.01-100 μM) in 40 μL of assay buffer [40 mM Tris/HCl pH 7.5, 10 mM MgCl2, 1 mM MnCl2, 1.0 mM dithiothreitol, 8 μM ATP, 0.025% PEG20000, 24 ng/μL poly(Glu4Tyr)n, 0.2 μCi/measurement point ^33P-gamma ATP, 1.25% dimethyl sulphoxide] at 22° C. for 10 min. The reaction was stopped by adding EDTA solution (250 mM, pH 7.5, 15 μl/measurement point). 15 μl of each reaction mixture were loaded onto P30 filter strips (from Wallac), and non-incorporated ^33P-ATP was removed by washing the filter strips three times in 0.5% strength phosphoric acid for 10 min each time.
After the filter strips had been dried at 70° C. for 1 hour, the filter strips were covered with scintillator strips (MeltiLex™ A, from Wallac) and baked at 90° C. for 1 hour. The amount of incorporated ^33P (substrate phosphorylation) was determined by scintillation measurement in a gamma radiation counter (Wallac).
(§1) The measured data were normalized to 0% inhibition (enzyme reaction without inhibitor) and 100% inhibition (all assay components except enzyme). The IC50 values were determined by means of a 4-parameter fit using the company's own software.

CDK1/CycB = target: T2, CDK1/CycB (Homo sapiens, UniProt P06493); assay: CDK1/CycB kinase assay; type: biochemical; details: 0.5 μM ATP
T2 construct: GST; purchased ProQinase GmbH, Freiburg; host or cells: baculovirus-infected insect cells (Sf9)
Experimental: Recombinant CDK1- and CycB-GST fusion proteins, purified from baculovirus-infected insect cells (Sf9), were purchased from ProQinase GmbH, Freiburg. The histone IIIS used as kinase substrate can be purchased from Sigma.
CDK1/CycB (5 ng/μL) was incubated in the presence of various concentrations of test substances (0 μM, and within the range 0.01-100 μM) in 40 μL of assay buffer [50 mM Tris/HCl pH 8.0, 10 mM MgCl2, 0.1 mM Na ortho-vanadate, 1.0 mM dithiothreitol, 0.025% PEG 20000, 0.5 μM ATP, 10 μM histone IIIS, 0.2 μCi/measurement point ^33P-gamma ATP, 0.05% NP40, 1.25% dimethyl sulphoxide] at 22° C. for 10 min. The reaction was stopped by adding EDTA solution (250 mM, pH 8.0, 15 μl/measurement point). 15 μl of each reaction mixture were loaded onto P30 filter strips (from Wallac), and non-incorporated ^33P-ATP was removed by washing the filter strips three times in 0.5% strength phosphoric acid for 10 min each time. After the filter strips had been dried at 70° C. for 1 hour, the filter strips were covered with scintillator strips (MeltiLex™ A, from Wallac) and baked at 90° C. for 1 hour. The amount of incorporated ^33P (substrate phosphorylation) was determined by scintillation measurement in a gamma radiation counter (Wallac).
as §1

T2 sequence (P06493 whole entry): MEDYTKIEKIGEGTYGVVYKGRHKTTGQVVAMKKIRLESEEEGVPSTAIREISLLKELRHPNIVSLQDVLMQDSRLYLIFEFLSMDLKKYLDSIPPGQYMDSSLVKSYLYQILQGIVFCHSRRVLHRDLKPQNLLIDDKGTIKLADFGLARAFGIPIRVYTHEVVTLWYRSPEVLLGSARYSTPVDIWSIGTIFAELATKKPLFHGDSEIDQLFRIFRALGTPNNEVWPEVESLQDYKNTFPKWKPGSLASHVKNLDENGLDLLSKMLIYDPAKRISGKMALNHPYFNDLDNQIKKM
T2 sequence (P14635 whole entry partner): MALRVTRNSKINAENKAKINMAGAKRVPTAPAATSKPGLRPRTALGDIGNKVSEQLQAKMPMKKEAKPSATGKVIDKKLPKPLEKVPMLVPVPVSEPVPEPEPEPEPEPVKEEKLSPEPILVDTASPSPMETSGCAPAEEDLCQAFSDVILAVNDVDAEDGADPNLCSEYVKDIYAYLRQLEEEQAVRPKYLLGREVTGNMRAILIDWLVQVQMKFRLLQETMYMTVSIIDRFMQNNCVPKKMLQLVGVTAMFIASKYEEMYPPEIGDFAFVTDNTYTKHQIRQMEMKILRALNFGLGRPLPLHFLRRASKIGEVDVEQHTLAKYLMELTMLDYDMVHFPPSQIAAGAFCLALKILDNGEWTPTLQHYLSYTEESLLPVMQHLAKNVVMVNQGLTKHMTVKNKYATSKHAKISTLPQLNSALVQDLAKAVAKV
T1 sequence (P35968 807-1356 limits assumed): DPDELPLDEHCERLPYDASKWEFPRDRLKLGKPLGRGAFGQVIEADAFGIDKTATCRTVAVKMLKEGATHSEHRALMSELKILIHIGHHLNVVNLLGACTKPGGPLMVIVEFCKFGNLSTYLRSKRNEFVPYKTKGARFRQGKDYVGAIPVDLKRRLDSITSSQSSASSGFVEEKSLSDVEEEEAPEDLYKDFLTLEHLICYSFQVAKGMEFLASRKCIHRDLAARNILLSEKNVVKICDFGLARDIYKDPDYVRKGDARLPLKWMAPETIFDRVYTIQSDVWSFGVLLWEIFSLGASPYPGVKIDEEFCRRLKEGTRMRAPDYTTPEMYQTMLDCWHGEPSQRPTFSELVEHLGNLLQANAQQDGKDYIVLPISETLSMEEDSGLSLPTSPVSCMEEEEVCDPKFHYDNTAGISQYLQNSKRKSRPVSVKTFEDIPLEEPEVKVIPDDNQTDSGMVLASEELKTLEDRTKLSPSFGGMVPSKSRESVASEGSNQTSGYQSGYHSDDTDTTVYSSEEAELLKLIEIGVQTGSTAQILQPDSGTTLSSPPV

| SMILES | pIC50 [1] | pIC50 (KDR (VEGFR2)) | pIC50 (CDK1/CycB) |
| --- | --- | --- | --- |
| C[C@@H](Nc1nc(Nc2cccc(NC(=O)N=S(C)(C)=O)c2)ncc1Br)C(C)(C)O [Example 1, N-({3-[(5-Bromo-4-{[(R)-2-hydroxy-1,2-dimethylpropyl]amino}pyrimidin-2-yl)amino]phenyl}carbamoyl)-S,S-dimethylsulphoximide] | 6.40 | 6.77 | 7.62 |
| C[C@@H](Nc1nc(Nc2ccc(NC(=O)N=S(C)(C)=O)cc2)ncc1Br)C(C)(C)O [Example 2, N-({4-[(5-Bromo-4-{[(R)-2-hydroxy-1,2-dimethylpropyl]amino}pyrimidin-2-yl)-amino]phenyl}carbamoyl)-S,S-dimethylsulphoximide] | 6.30 | 6.64 | 7.68 |
| C[C@@H](O)[C@@H](C)Nc1nc(Nc2ccc(F)c(NC(=O)N=S(C)(C)=O)c2)ncc1Br [Example 7, N-({5-[(5-Bromo-4-{[(1R,2R)-2-hydroxy-1-methylpropyl]amino}pyrimidin-2-yl)amino]-2-fluorophenyl}carbamoyl)-S,S-dimethylsulphoximide] | 6.30 | 6.52 | 8.00 |
| Cc1ccc(Nc2ncc(Br)c(N[C@H](C)[C@@H](C)O)n2)cc1NC(=O)N=S(C)(C)=O [Example 8, N-({5-[(5-Bromo-4-{[(1R,2R)-2-hydroxy-1-methylpropyl]amino}pyrimidin-2-yl)amino]-2-methylphenyl}carbamoyl)-S,S-dimethylsulphoximide] | 6.15 | 6.89 | 7.68 |
| COc1ccc(Nc2ncc(Br)c(N[C@H](C)[C@@H](C)O)n2)cc1NC(=O)N=S(C)(C)=O [Example 10, N-({5-[(5-Bromo-4-{[(1R,2R)-2-hydroxy-1-methylpropyl]amino}pyrimidin-2-yl)amino]-2-methoxyphenyl}carbamoyl)-S,S-dimethylsulphoximide] | 6.19 | 6.49 | 7.59 |
| COc1cc(Nc2ncc(Br)c(N[C@H](C)[C@@H](C)O)n2)ccc1NC(=O)N=S(C)(C)=O [Example 11, N-({4-[(5-Bromo-4{[(1R,2R)-2-hydroxy-1-methylpropyl]amino}pyrimidin-2-yl)amino]-2-methoxyphenyl}carbamoyl)-S,S-dimethylsulphoximide] | 6.00 | 7.02 | 7.34 |
| C[C@@H](O)[C@@H](C)Nc1nc(Nc2ccc(Cl)c(NC(=O)N=S(C)(C)=O)c2)ncc1Br [Example 12, N-({5-[(5-Bromo-4-{[(1R,2R)-2-hydroxy-1-methylpropyl]amino}pyrimidin-2-yl)amino]-2-chlorophenyl}carbamoyl)-S,S-dimethylsulphoximide] | 6.07 | 6.46 | 7.74 |
| C[C@@H](O)[C@@H](C)Nc1nc(Nc2ccc(NC(=O)N=S(C)(C)=O)cc2)ncc1C(F)(F)F [Example 15] | 6.28 | 5.96 | 7.82 |
| CS(C)(=O)=NC(=O)Nc1ccc(Nc2ncc(Br)c(Nc3ccc4[nH]cnc4c3)n2)cc1 [Example 16, N-[(4-{[4-(1H-Benzimidazol-5-ylamino)-5-bromopyrimidin-2-yl]amino}phenyl)-carbamoyl]-S,S-dimethylsulphoximide] | 5.68 | 7.19 | 6.85 |

Stronger by pIC50 [1], values ahead:

| pIC50 [1] | pIC50 (KDR (VEGFR2)) | pIC50 (CDK1/CycB) | SMILES |
| --- | --- | --- | --- |
| 6.80 | 6.92 | 8.15 | C[C@@H](O)[C@@H](C)Nc1nc(Nc2ccc(NC(=O)N=S(C)(C)=O)cc2)ncc1Br [Example 3, N-({4-[(5-Bromo-4-{[(1R,2R)-2-hydroxy-1-methylpropyl]amino}pyrimidin-2-yl)amino]phenyl}carbamoyl)-S,S-dimethylsulphoximide] |
| 6.85 | 6.80 | 8.30 | C[C@@H](O)[C@@H](C)Oc1nc(Nc2ccc(NC(=O)N=S(C)(C)=O)cc2)ncc1Br [Example 4, N-({4-[(5-Bromo-4-{[(1R,2R)-2-hydroxy-1-methylpropyl]oxy}pyrimidin-2-yl)amino]phenyl}carbamoyl)-S,S-dimethylsulphoximide] |
| 6.80 | 7.20 | 8.00 | C[C@@H](O)[C@@H](C)Nc1nc(Nc2cccc(NC(=O)N=S(C)(C)=O)c2)ncc1Br [Example 5, N-({3-[(5-Bromo-4-{[(1R,2R)-2-hydroxy-1-methylpropyl]amino}pyrimidin-2-yl)amino]phenyl}carbamoyl)-S,S-dimethylsulphoximide] |
| 6.82 | 6.89 | 8.15 | C[C@@H](O)[C@@H](C)Oc1nc(Nc2cccc(NC(=O)N=S(C)(C)=O)c2)ncc1Br [Example 6, N-({3-[(5-Bromo-4-{[(1R,2R)-2-hydroxy-1-methylpropyl]oxy}pyrimidin-2-yl)amino]phenyl}carbamoyl)-S,S-dimethylsulphoximide] |
| 6.42 | 6.48 | 8.00 | C[C@@H](O)[C@@H](C)Nc1nc(Nc2cccc(C(=O)N=S(C)(C)=O)c2)ncc1Br [Example 17, N-{3-[(5-Bromo-4-{[(1R,2R)-2-hydroxy-1-methylpropyl]amino}pyrimidin-2-yl)amino]benzoyl}-S,S-dimethylsulphoximide] |
| 6.85 | 7.21 | 7.74 | C[C@@H](O)[C@@H](C)Nc1nc(Nc2ccc(C(=O)N=S(C)(C)=O)cc2)ncc1Br [Example 18, N-{4-[(5-Bromo-4-{[(1R,2R)-2-hydroxy-1-methylpropyl]amino}pyrimidin-2-yl)amino]benzoyl}-S,S-dimethylsulphoximide] |
| 6.60 | 6.92 | 7.38 | C[C@@H](Nc1nc(Nc2ccc(C(=O)N=S(C)(C)=O)cc2)ncc1Br)C(C)(C)O [Example 19, N-{4-[(5-Bromo-4-{[(R)-2-hydroxy-1,2-dimethylpropyl]amino}pyrimidin-2-yl)amino]benzoyl}S,S-dimethylsulphoximide] |
| 6.51 | 7.02 | 7.77 | C[C@@H](O)[C@@H](C)Oc1nc(Nc2ccc(C(=O)N=S(C)(C)=O)cc2)ncc1Br [Example 20, N-{4-[(5-Bromo-4-{[(1R,2R)-2-hydroxy-1-methylpropyl]oxy}pyrimidin-2-yl)amino]benzoyl}-S,S-dimethylsulphoximide] |
